Laboratory results as given in PMC11266321 (EJNMMI Radiopharmacy and Chemistry, 2024).

Key:
Serotonin 5HT2A = target: T1, Serotonin 5HT2A (Homo sapiens, UniProt P28223); test: Radioligand binding inhibition, Serotonin 5HT2A; settings: 10 µM; radioligand [^3H]Ketanserin; mean of duplicate
T1 construct: Sekisui Medical (contract laboratory that ran the panel)
Procedure: (§1) Interaction of MMP with 28 binding sites was examined, including major classes of neurotransmitter receptor, uptake system, and ion channels (Sekisui Medical, Naka, Japan). MMP was tested in all assays at 10 µM. […] 10.2.3 (GraphPad Software, San Diego, CA). Each determination was made in duplicate.
(§2) Test substance concentration : 10 µM, positive substance concentration : 10 µM
(§3) Data are expressed as the mean values of duplicate samples.
(§4) The % inhibition was calculated from “100 – binding ratio”.
(§5) Binding ratio: [(B - N) / (B0 - N)] × 100 (%)
(§6) B: Bound radioactivity in the presence of test substance and positive substance (individual value)
(§7) B0: Total bound radioactivity in the absence of test substance and positive substance (mean value)
(§8) N: Non-specific bound radioactivity (mean value)

Nicotinic (neuronal) = format: binding; settings: 10 µM; radioligand [^3H]Cytisine; mean of duplicate
Serotonin 5HT1A = target: T2, Serotonin 5HT1A (Homo sapiens, UniProt P08908); test: Radioligand binding inhibition, Serotonin 5HT1A; settings: 10 µM; radioligand [^3H]8-OH DPAT; mean of duplicate
T2 construct: Sekisui Medical (contract laboratory)
Procedure: as §1, §2, §3, §4, §5, §6, §7, §8

Glutamate (Ketamine) = test: Radioligand binding inhibition, Glutamate (Ketamine); settings: 10 µM; radioligand [^3H]Kainic acid; mean of duplicate
Dopamine D2 = target: T3, Dopamine D2 (Homo sapiens, UniProt P14416); test: Radioligand binding inhibition, Dopamine D2; settings: 10 µM; radioligand [^3H]Spiperone; mean of duplicate
T3 construct: Sekisui Medical (contract laboratory)
Procedure: as §1, §2, §3, §4, §5, §6, §7, §8

GABA A (BZ central) = test: Radioligand binding inhibition, GABA A BZ central; settings: 10 µM; radioligand [^3H]Flunitrazepam; mean of duplicate
Procedure: as §1, §2, §3, §4, §5, §6, §7, §8

[1] = system: Glycine (strychnine site); format: binding; settings: 10 µM; radioligand [^3H]Strychine; mean of duplicate
[2] = target: T4, Glutamate (NMDA glycine site) (Homo sapiens, UniProt Q05586); test: Radioligand binding inhibition, Glutamate NMDA glycine site; settings: 10 µM; radioligand [^3H]MDL105,519; mean of duplicate
T4 construct: Sekisui Medical (contract laboratory)
Procedure: as §1, §2, §3, §4, §5, §6, §7, §8

Histamine H2 = target: T5, Histamine H2 (Homo sapiens, UniProt P25021); test: Radioligand binding inhibition, Histamine H2; settings: 10 µM; radioligand [^125I]Iodoaminopotentidine; mean of duplicate
T5 construct: Sekisui Medical (contract laboratory)
Procedure: as §1, §2, §3, §4, §5, §6, §7, §8

[3] = system: α2-Adrenergic (non-selective); test: Radioligand binding inhibition, α2-Adrenergic; settings: 10 µM; radioligand [^3H]Rauwolscine; mean of duplicate
Procedure: as §1, §2, §3, §4, §5, §6, §7, §8

Serotonin 5HT3 (human) = target: T6, Serotonin 5HT3 (human) (Homo sapiens, UniProt P46098); test: Radioligand binding inhibition, Serotonin 5HT3; settings: 10 µM; radioligand [^3H]GR65630; mean of duplicate
T6 construct: Sekisui Medical (contract laboratory that ran the panel)
Procedure: as §1, §2, §3, §4, §5, §6, §7, §8

GABA A (agonist site) = test: Radioligand binding inhibition, GABA A agonist site; settings: 10 µM; radioligand [^3H]Muscimol; mean of duplicate
Procedure: as §1, §2, §3, §4, §5, §6, §7, §8

Glutamate (AMPA) = test: Radioligand binding inhibition, Glutamate AMPA; settings: 10 µM; radioligand [^3H]AMPA; mean of duplicate
Procedure: as §1, §2, §3, §4, §5, §6, §7, §8

[4] = system: Glutamate (non-selective); test: Radioligand binding inhibition, Glutamate non-selective; settings: 10 µM; radioligand [^3H]Glutamic acid; mean of duplicate
Procedure: as §1, §2, §3, §4, §5, §6, §7, §8

[5] = system: Glutamate (NMDA agonist site); test: Radioligand binding inhibition, Glutamate NMDA agonist site; settings: 10 µM; radioligand [^3H]CGP-39653; mean of duplicate
Procedure: as §1, §2, §3, §4, §5, §6, §7, §8

Opiate (non-selective) = test: Radioligand binding inhibition, Opiate; settings: 10 µM; radioligand [^3H]Naloxone; mean of duplicate
Procedure: as §1, §2, §3, §4, §5, §6, §7, §8

[6] = system: β-Adrenergic (non-selective); test: Radioligand binding inhibition, β-Adrenergic; settings: 10 µM; radioligand [^3H]DHA; mean of duplicate
Procedure: as §1, §2, §3, §4, §5, §6, §7, §8

[7] = system: Glutamate (NMDA phencyclidine site); test: Radioligand binding inhibition, Glutamate NMDA phencyclidine site; settings: 10 µM; radioligand [^3H]MK-801; mean of duplicate
Procedure: as §1, §2, §3, §4, §5, §6, §7, §8

T6 sequence (P46098 24-478): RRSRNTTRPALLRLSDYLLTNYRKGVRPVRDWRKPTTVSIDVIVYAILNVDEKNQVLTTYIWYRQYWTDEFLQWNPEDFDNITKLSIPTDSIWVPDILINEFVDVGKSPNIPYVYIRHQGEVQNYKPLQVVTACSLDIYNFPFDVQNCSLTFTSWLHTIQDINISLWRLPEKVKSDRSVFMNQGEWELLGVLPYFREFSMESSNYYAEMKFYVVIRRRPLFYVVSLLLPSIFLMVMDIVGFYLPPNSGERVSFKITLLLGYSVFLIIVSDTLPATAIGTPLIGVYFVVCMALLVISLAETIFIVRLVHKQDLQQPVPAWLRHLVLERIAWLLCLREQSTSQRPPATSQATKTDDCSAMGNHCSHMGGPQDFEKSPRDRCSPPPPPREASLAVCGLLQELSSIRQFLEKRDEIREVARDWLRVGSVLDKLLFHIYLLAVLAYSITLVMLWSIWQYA
T5 sequence (P25021 whole entry): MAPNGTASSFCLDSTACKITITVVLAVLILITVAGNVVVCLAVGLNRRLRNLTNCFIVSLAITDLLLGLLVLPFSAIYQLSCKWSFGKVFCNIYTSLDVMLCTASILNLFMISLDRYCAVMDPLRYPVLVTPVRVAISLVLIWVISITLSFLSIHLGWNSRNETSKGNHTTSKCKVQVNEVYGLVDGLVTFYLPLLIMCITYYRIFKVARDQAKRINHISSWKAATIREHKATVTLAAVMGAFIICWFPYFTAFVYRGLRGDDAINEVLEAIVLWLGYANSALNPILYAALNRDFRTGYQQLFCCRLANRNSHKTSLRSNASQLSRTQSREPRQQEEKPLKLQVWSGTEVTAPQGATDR
T1 sequence (P28223 whole entry): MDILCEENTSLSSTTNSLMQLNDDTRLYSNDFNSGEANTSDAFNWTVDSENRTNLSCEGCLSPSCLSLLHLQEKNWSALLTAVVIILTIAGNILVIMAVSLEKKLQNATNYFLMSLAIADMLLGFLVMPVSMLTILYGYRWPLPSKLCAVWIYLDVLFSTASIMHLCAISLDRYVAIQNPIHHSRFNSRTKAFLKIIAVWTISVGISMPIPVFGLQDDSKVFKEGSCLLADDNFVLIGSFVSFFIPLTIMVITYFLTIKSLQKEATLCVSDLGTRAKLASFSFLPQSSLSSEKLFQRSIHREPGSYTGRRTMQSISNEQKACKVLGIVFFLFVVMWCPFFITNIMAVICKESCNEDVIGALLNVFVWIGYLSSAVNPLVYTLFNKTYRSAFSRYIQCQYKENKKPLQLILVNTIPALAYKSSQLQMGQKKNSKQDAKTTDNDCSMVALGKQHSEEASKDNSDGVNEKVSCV
T3 sequence (P14416 whole entry): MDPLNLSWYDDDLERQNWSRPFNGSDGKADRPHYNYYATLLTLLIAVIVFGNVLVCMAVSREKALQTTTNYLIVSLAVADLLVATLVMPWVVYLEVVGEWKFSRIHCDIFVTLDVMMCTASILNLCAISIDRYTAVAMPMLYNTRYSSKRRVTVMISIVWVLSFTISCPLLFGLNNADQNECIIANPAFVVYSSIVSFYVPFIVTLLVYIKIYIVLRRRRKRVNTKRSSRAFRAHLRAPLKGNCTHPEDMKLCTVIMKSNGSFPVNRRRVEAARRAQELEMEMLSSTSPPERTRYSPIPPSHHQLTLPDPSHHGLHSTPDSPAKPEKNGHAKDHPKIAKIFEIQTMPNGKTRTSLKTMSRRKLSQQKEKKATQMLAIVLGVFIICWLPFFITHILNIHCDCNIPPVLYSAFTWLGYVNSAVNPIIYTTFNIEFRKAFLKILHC
T2 sequence (P08908 whole entry): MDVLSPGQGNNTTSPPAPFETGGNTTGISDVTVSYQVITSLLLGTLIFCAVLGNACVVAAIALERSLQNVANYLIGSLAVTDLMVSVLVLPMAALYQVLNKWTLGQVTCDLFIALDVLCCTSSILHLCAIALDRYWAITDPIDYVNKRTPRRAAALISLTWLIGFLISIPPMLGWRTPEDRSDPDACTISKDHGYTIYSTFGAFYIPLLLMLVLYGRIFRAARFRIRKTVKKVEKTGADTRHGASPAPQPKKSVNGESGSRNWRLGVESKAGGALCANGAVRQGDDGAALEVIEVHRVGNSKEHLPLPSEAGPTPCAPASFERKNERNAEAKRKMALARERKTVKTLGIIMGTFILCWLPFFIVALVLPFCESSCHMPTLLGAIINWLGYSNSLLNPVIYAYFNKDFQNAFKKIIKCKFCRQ

In the case of `O=C(c1ccc(F)cc1)C1CCN(CCn2c(=O)[nH]c3ccccc3c2=O)CC1` [Ketanserin, reference compound], the “Inhibition ratio (%)” value (Serotonin 5HT2A) is reported as 98.94%.

For (±)-Nicotine [reference compound], the “Inhibition ratio (%)” value (Nicotinic (neuronal)) was 95.62%.

With `NCCc1c[nH]c2ccc(O)cc12` [Serotonin, reference compound] the “Inhibition ratio (%)” value (Serotonin 5HT1A) was 95.99%.

For `C=C(C)[C@H]1CN[C@H](C(=O)O)[C@H]1CC(=O)O` [Kainic acid, reference compound], the “Inhibition ratio (%)” value (Glutamate (Ketamine)) was 97.79%.

(+)-Butaclamol [reference compound] was tested, and the “Inhibition ratio (%)” value (Dopamine D2) was 95.06%.

With `CN1C(=O)CN=C(c2ccccc2)c2cc(Cl)ccc21` [Diazepam, reference compound] the “Inhibition ratio (%)” value (GABA A (BZ central)) was 100.00%.

In the case of `O=C1C[C@@H]2OCC=C3CN4CC[C@]56c7ccccc7N1[C@H]5[C@H]2[C@H]3C[C@H]46` [Strychnine, reference compound], the “Inhibition ratio (%)” value [1] is reported as 100.00%.

`O=C(O)/C(=C/c1c(C(=O)O)[nH]c2cc(Cl)cc(Cl)c12)c1ccccc1` [MDL105,519, reference compound] was tested, and the “Inhibition ratio (%)” value [2] was 97.35%.

For `CN/C(=N/CCSCc1nc[nH]c1C)NC#N` [Cimetidine, reference compound], the “Inhibition ratio (%)” value (Histamine H2) was 97.63%.

With `COC(=O)[C@@H]1[C@H]2C[C@H]3c4[nH]c5ccccc5c4CCN3C[C@@H]2CC[C@@H]1O` [Yohimbine, reference compound] the “Inhibition ratio (%)” value [3] was 89.82%.

`CN1[C@@H]2CC[C@H]1C[C@@H](OC(=O)c1c[nH]c3ccccc13)C2` [Tropisetron, reference compound] was tested, and the “Inhibition ratio (%)” value (Serotonin 5HT3 (human)) was 99.78%.

`NCc1cc(=O)[nH]o1` [Muscimol, reference compound] was tested, and the “Inhibition ratio (%)” value (GABA A (agonist site)) was 96.50%.

With `Cc1o[nH]c(=O)c1C[C@H](N)C(=O)O` [(S)-AMPA, reference compound] the “Inhibition ratio (%)” value (Glutamate (AMPA)) was 98.65%.

For `N[C@@H](CCC(=O)O)C(=O)O` [L-Glutamic acid, reference compound], the “Inhibition ratio (%)” value [4] was 93.56% and the “Inhibition ratio (%)” value [5] was 100.00%.

With `C=CCN1CC[C@]23c4c5ccc(O)c4O[C@H]2C(=O)CC[C@@]3(O)[C@H]1C5` [Naloxone, reference compound] the “Inhibition ratio (%)” value (Opiate (non-selective)) was 96.53%.

In the case of `CC(C)NCC(O)COc1cccc2ccccc12` (racemic) [(±)-Propranolol, reference compound], the “Inhibition ratio (%)” value [6] is reported as 97.25%.

In the case of (+)-MK-801 [reference compound], the “Inhibition ratio (%)” value [7] is reported as 100.00%.
